For data set [1] the following is noted: mouse, in vivo.
Description: In vivo and ex vivo biodistribution of Cy5-PL2. Cy5-PL2 (2.6 μmol/kg), Cy5-PDL2 (2.6 μmol/kg) and PBS were administrated by oral gavage. Mice were placed on the sample stage equipped with anesthesia input and output ports, and imaged by the Bruker Xtreme In-Vivo Fluorescence Imaging System at 1 h, 2 h, 4 h, 7 h, and 24 h post injection (p.i.). The excitation filter was set at 630 nm and the emission filter was set at 700 nm. Collected images were analyzed by the Bruker molecular imaging software. Stomach, intestines, liver, lung, kidneys, heart, and spleen were harvested at 4 h or 24 h p.i. of Cy5-PL2 and imaged ex vivo using the Bruker Xtreme In-Vivo Imaging System. Ex vivo images were quantified by measuring FI at selected region of interest (ROI). All values were expressed as means±standard deviation (n=3). […] The other half of the stomach were placed into separate glass tubes containing 2 mL of lysis buffer (1% SDS, 100 10 mM Tris.HCl, pH 7.4, 1 tablet of EDTA-free protease inhibitor), homogenized, and incubated at 4° C. for 2 h. The lysates were then centrifuged at 3000 rcf for 10 min to remove the insoluble cell debris, and measured on a fluorescence spectrometer to determine the amount of Cy5 retained in the tissues. The amount of Cy5 was calculated based on the standard curve of Cy5 FI and normalized to percentage of injected dose (% I.D.) per gram tissue.
In data set [2] the test system is H. pylori SS1. The experiment in a line: SEM analysis of bacterial morphology. The conditions noted are these: 30 min. It is filed as cell-based, Helicobacter pylori. How it is done:
SEM analysis. SS1 bacterial cells grown in BB with the supplement of 10% FBS under pH 7.4 or 4.0 with or without polypeptides (2.2 μM) treatment were performed using a similar protocol as killing kinetics measurements but with a 30 min incubation time. All the samples were collected into a microfuge tube and pelleted at 4000 rpm for 5 min, and then washed twice with phosphate-buffered saline. Subsequently, bacteria were fixed with paraformaldehyde solution (4%) for 1 h before proceeding, followed by washing with DI water. Dehydration was performed with a series of graded ethanol solution (10%, 25%, 50%, 75%, 95%, and 100%). The dehydrated samples were dried under vacuum overnight before being mounted on carbon tape and coated with gold-platinum for imaging using a Hitachi S-4700 High Solution SEM (Japan).

Data set [3] is described as follows: Liposome dye leakage assay (ANTS/DPX efflux). The procedure:
Liposome dye leakage assay. ANTS (12.5 mM) and DPX (45 mM) were dissolved in Tris buffer (pH=7.4). To a clean round-bottom flask, appropriate volumes of lipid stocks were added to make up 1 mL of CHCl3 (3:1 POPE (1-palmitoyl-2-oleoyl-sn-glycero-3-phosphoethanolamine)/POPG (1-palmitoyl-2-oleoyl-sn-glycero-3-phospho-(1′-rac-glycerol) (sodium salt)) vesicles, POPE (130 μL, 25 mg/mL CHCl3) and POPG (115 μL, 10 mg/mL CHCl3) were used). The solvent was removed by a stream of nitrogen gas to obtain a thin lipid film, which was then hydrated by 1 mL of ANTS/DPX solution. The mixture was left to hydrate for 1 h, after which it was subjected to 10 freeze-thaw cycles (using dry ice/acetone to freeze and warm water to thaw). The suspension was extruded 20 times through a polycarbonate membrane with 400 nm pore diameter. The excess dye was removed using Sephadex G-50 column as the eluent. The dye-filled vesicle fractions were diluted 200 times with Tris buffer. This suspension (90 μL) was subsequently mixed with polypeptide stock solutions (10 μL) at various pH (pH 7.4 or 4.0) on a 96-well black microplate (Greiner, flat bottom). Tris buffer (10 μL, pH 7.4 or 4.0) and Triton-X (0.1% v/v, 10 μL, pH 7.4 or 4.0) were employed as the negative and positive controls at corresponding pH, respectively. After 30 min, the fluorescence intensity in each well was recorded using the microplate reader with excitation and emission wavelengths of 380 and 520 nm, respectively. The percentage of leaked […] dye in each well was determined as follows: leakage (%)=[(F−F0)/(FTX−F0)]×100%, where F is the fluorescence intensity recorded in the well, F0 is the intensity in the negative control well, and FTX is the intensity in the positive control well.

A short description of data set [4]: Circular dichroism (CD) secondary structure of polypeptides at different pH. It is filed as physicochemical. How it is done: The secondary structure of the polypeptides at different pH value was then investigated by circular dichroism (CD). […] Distortion of helical conformation was noted when the pH was adjusted back to neutral (FIG. 1C).
The MALLS detector was calibrated using pure toluene and can be used for the determination of the absolute molecular weights (MWs). The MWs of polymers were determined based on the dn/dc value of each polymer sample calculated offline by using the internal calibration system processed by the ASTRA V software (version 5.1.7.3, Wyatt Technology, Santa Barbara, Calif., USA). Circular dichroism (CD) measurements were carried out on a JASCO J-815 CD spectrometer. The polymer samples were prepared at concentrations of 4.4 μM. The solution was placed in a quartz cell with a path length of 0.10 cm. The zeta-potential of polypeptides was evaluated by Malvern Zetasizer. Infrared spectra were recorded on a Perkin Elmer 100 serial FTIR spectrophotometer calibrated with polystyrene film. Lyophilization was performed on a FreeZonelyophilizer (Labconco, Kansas City, Mo., USA). UV light was generated from an OmiCure S1000 UV lamp (EXFO, Mississauga, Canada).
A general note: CD spectra are sensitive to the conformation of chiral molecules.

Data set [5] has as its system clinically isolated H. pylori strains, including clarithromycin-resistant J99A-7, J99A-11, J99C-8, and J99D-1. The experiment in a line: Bactericidal activity against clinically isolated H. pylori strains. It is filed as cell-based, Helicobacter pylori. The settings on record: pH 3.0, 1 h incubation, 4.4 μM. The procedure: FIG. 3. HCT-AMPs effectively kill clinically isolated drug resistant H. pylori. (A) The bactericidal activity of PL2 against clinically isolated H. pylori strains. PL2, dissolved in the Tris-HCl buffer (pH 3.0), were incubated with clinically isolated strains in BB medium supplied with fresh urea, FBS and vancomycin (pH 3.0) for 1 h. The final concentration of PL2 was 4.4 μM. (B) The antibacterial activity of triple therapy against J99A-11 at pH 7.4 or 3.0. Concentrations of omeprazole, amoxicillin, and clarithromycin in OAC1 are 20.0 μM, 6.8 μM, and 1.9 μM, respectively; in OAC2 are 40.0 μM, 13.6 μM, and 3.8 μM, respectively; in OAC3 are 80.0 μM, 27.2 μM, and 7.6 μM, respectively (bars, left to right). (C) The antibacterial activity of omeprazole (0) and a combination of amoxicillin and clarithromycin (AC) against J99A-11 at pH 3.0. O1, O2, O3 represents the concentration of omeprazole at 20.0 μM, 40.0 μM, and 80.0 μM, respectively. AC1, AC2, AC3 represents the concentration of amoxicillin and clarithromycin at 6.8 μM and 1.9 μM, 13.6 μM and 3.8 μM, 27.2 μM and 7.6 μM, respectively.
H. pylori killing kinetics at various pHs. The killing kinetics of polypeptides were measured against H. pylori by counting the colony forming units (CFU) of alive bacteria with agar plating. […] The plates were incubated for 72 h in the incubator and the bacteria were counted for CFU. […]

Read-outs that look alike come from different tables or passages of the source.

As for (PGA)18-r-(PHLG-MHH)20 [PL2], the gastric retention is roughly 6% in data set [1] and roughly 40 % ID/g in data set [1] (po, 2.6 umol/kg, 4 h). The “bacterial membrane/morphology by SEM” value in data set [2] (pH 4.0, 2.2 μM) is given as “dramatic damage of the bacterial membranes”; in data set [2] (pH 7.4, 2.2 μM), “minimally affected the bacterial morphology”. Also, the results for the “dye leakage from anionic liposomes” value in data set [3] (pH 4.0) and in data set [3] (pH 7.4) were “great dye leakage” and “minimal dye leakage”, respectively. Besides, the “secondary structure (CD)” value in data set [4] (pH≤4.2) is “typical helical conformation”; in data set [4] (pH≥5.1), “random coiled conformation”. In data set [5], the bacterial strains killed result is recorded as “over 90%”.
